Experimental data taken from ChEMBL document CHEMBL3431459, “Roche carnitine palmitoyltransferase modulator screening data (supplementary data associated with the publication CHEMBL2216752)”.
In brackets after ≈: the same amount, converted by molar mass.

Key:
[1] = biological target: T1, Carnitine O-palmitoyltransferase 1, muscle isoform (Homo sapiens, UniProt Q92523); assay: SUPPLEMENTARY: Inhibition of Carnitine palmitoyltransferase 1, muscle isoform; set-up: species or system Muscle tissue
T1 sequence (Q92523 whole entry): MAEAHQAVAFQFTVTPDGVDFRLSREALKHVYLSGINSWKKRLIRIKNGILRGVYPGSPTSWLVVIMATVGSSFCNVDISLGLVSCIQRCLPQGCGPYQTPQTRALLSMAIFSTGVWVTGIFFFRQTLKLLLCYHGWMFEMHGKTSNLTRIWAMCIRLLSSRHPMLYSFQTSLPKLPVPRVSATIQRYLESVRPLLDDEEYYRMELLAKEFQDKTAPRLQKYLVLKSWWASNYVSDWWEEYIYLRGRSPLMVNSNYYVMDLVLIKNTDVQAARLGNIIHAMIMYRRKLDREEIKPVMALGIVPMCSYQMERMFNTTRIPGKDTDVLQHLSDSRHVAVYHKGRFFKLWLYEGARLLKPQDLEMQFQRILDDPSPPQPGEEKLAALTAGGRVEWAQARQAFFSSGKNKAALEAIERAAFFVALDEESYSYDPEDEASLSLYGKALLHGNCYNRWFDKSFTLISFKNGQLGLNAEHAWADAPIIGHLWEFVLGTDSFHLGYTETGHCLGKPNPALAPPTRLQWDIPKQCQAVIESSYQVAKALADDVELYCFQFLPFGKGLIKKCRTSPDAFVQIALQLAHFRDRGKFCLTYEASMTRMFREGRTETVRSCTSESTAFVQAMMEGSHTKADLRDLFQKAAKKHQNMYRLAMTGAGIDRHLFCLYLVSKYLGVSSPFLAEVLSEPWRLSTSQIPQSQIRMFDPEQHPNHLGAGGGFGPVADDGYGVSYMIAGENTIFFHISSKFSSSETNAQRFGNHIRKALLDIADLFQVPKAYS

[2] = biological target: T2, Carnitine O-palmitoyltransferase 2, mitochondrial (Homo sapiens, UniProt P23786); assay: (§1) SUPPLEMENTARY: Inhibition of Carnitine palmitoyltransferase 2
T2 sequence (P23786 whole entry): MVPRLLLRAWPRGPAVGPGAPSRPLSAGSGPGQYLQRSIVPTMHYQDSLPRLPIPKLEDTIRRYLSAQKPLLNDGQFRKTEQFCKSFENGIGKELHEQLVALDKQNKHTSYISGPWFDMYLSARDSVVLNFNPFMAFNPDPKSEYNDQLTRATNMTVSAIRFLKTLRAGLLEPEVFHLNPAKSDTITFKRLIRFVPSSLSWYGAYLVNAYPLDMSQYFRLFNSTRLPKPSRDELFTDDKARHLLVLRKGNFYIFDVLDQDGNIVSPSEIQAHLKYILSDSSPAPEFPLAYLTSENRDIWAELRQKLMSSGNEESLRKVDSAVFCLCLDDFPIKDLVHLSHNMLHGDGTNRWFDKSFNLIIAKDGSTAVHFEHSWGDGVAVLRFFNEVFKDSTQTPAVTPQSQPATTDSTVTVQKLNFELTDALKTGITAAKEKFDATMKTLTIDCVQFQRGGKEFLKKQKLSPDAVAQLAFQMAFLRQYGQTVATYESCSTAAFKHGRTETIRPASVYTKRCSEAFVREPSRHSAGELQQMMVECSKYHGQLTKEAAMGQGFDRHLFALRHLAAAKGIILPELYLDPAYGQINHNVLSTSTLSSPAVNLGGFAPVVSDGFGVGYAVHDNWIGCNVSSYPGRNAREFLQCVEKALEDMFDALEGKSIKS

[3] = biological target: T3, Carnitine O-palmitoyltransferase 2, mitochondrial (Rattus norvegicus, UniProt P18886); assay: as §1
T3 sequence (P18886 whole entry): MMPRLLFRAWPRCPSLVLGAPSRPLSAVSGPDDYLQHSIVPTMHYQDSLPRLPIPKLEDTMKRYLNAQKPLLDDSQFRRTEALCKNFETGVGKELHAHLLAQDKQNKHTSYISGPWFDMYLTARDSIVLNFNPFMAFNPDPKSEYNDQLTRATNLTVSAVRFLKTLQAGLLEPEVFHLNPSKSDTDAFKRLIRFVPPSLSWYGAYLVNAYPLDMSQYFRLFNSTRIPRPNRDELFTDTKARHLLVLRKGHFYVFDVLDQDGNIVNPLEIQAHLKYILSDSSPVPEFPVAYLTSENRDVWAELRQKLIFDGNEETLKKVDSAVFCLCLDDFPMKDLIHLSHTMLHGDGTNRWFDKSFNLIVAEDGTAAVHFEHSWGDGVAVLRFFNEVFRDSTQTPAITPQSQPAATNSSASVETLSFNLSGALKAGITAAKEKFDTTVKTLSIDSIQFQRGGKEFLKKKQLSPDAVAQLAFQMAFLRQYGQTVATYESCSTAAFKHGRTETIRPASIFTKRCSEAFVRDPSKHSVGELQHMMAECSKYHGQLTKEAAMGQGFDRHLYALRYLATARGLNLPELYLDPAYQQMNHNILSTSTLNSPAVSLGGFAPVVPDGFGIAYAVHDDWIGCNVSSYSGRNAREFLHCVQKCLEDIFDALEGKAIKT

[4] = biological target: T4, Carnitine O-palmitoyltransferase 1, liver isoform (Homo sapiens, UniProt P50416); assay: (§2) SUPPLEMENTARY: Inhibition of Carnitine palmitoyltransferase 1, liver isoform
T4 sequence (P50416 whole entry): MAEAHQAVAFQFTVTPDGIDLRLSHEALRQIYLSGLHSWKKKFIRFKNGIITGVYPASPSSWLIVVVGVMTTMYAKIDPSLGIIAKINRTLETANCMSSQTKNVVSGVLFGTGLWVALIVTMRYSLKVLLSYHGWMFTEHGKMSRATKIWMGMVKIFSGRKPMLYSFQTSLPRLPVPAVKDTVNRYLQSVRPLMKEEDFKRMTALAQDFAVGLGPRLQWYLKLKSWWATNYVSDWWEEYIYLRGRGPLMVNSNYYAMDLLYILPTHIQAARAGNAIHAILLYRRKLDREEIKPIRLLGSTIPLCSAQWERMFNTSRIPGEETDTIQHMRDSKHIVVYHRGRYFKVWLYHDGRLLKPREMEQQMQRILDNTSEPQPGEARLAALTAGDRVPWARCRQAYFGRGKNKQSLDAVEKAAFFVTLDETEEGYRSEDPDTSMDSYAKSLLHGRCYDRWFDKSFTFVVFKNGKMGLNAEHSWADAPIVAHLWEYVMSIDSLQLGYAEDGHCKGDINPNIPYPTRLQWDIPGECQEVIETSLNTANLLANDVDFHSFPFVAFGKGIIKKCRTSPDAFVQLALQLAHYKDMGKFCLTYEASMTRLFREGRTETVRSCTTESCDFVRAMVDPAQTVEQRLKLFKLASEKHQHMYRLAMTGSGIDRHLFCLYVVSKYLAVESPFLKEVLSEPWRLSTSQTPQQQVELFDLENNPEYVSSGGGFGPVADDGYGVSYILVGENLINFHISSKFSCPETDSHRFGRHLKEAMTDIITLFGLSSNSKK

[5] = biological target: T5, Carnitine O-palmitoyltransferase 1, liver isoform (Rattus norvegicus, UniProt P32198); assay: as §2
T5 sequence (P32198 whole entry): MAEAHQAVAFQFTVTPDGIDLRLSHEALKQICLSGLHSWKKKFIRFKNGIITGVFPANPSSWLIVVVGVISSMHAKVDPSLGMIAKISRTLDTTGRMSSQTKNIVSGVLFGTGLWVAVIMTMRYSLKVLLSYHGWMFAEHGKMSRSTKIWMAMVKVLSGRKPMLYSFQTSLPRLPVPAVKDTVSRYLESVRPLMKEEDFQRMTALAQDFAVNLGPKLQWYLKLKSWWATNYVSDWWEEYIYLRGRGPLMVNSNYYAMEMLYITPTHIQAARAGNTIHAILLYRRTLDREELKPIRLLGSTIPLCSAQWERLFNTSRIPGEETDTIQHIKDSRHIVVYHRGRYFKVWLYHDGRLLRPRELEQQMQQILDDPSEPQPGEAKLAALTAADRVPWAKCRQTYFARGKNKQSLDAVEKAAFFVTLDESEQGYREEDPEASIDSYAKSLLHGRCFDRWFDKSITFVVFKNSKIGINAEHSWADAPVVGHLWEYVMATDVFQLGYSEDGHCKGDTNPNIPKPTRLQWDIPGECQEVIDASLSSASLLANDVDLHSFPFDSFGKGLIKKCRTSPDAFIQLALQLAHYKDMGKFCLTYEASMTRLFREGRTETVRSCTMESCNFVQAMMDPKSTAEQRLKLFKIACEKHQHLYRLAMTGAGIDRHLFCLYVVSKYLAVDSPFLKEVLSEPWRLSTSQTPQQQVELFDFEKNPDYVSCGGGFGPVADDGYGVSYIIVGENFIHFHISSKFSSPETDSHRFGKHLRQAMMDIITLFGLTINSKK

[6] = SUPPLEMENTARY: Lyophilisation Solubility Assay (LYSA); type: physicochemical; conditions: read-out: Kinetic_solubility
[7] = SUPPLEMENTARY: PAMPA permeability assay; type: physicochemical; conditions: read-out: Permeability

SMILES	IC50 [1]	IC50 [2]	IC50 [3]	IC50 [4]	IC50 [5]	solubility kinetic [6]	Papp [7]
O=C(Nc1ccc(C(=O)O)c(F)c1)c1ccc2c(c1)N(S(=O)(=O)c1cc(Cl)cc(Cl)c1)CCC2	19600 nM	> 100000 nM	> 100000 nM	111 nM	53.4 nM	7 µg/mL (≈ 13.4 µM)	4.82 ×10⁻⁶ cm/s
COc1ccc(Cl)cc1S(=O)(=O)c1c[nH]c2ccc(C(=O)Nc3ccccc3)cc12	> 100000 nM	> 100000 nM	> 100000 nM	114 nM	83.8 nM	1 µg/mL (≈ 2.27 µM)	0.06 ×10⁻⁶ cm/s
COc1ccc(Cl)cc1CN1C(=O)COc2ccc(C(=O)Nc3nc(CC(=O)O)cs3)cc21	32400 nM	> 100000 nM	> 100000 nM	142 nM	85.9 nM	34 µg/mL (≈ 69.7 µM)	1.13 ×10⁻⁶ cm/s
COc1ccc(Cl)cc1S(=O)(=O)c1nn(CCC(=O)O)c2ccc(C(=O)Nc3ccccc3)cc12	49400 nM	> 100000 nM	> 100000 nM	14.7 nM	6.6 nM	25 µg/mL (≈ 48.6 µM)	0.67 ×10⁻⁶ cm/s
COc1ccc(Cl)cc1S(=O)(=O)c1cn(CC(N)=O)c2ccc(C(=O)Nc3ccccc3)cc12	> 100000 nM	> 100000 nM	> 100000 nM	12.8 nM	17.1 nM	2 µg/mL (≈ 4.02 µM)	0.3 ×10⁻⁶ cm/s
COc1ccc(Cl)cc1S(=O)(=O)N1COc2c(F)cc(C(=O)Nc3ccc(C(=O)O)cc3)cc21	17600 nM	15100 nM	> 100000 nM	42.5 nM	63.4 nM	15 µg/mL (≈ 29.6 µM)	2.2 ×10⁻⁶ cm/s
COc1ccc(Cl)cc1S(=O)(=O)N1CCOc2c(F)cc(C(=O)Nc3ccc(C(=O)O)cc3)cc21	> 100000 nM	11300 nM	> 100000 nM	77.5 nM	45.2 nM	5 µg/mL (≈ 9.6 µM)	2.44 ×10⁻⁶ cm/s
COc1ccc(Cl)cc1S(=O)(=O)N1COc2c(Cl)cc(C(=O)Nc3ccc(C(=O)O)cc3)cc21	> 100000 nM	33700 nM	68200 nM	43.6 nM	34.5 nM	4 µg/mL (≈ 7.64 µM)	3.92 ×10⁻⁶ cm/s
COc1ccc(Cl)cc1Sc1cn(C)c2ccc(C(=O)Nc3ccc(C(=O)O)cc3)cc12	> 100000 nM	> 100000 nM	> 100000 nM	61.9 nM	74 nM	2 µg/mL (≈ 4.28 µM)	0.53 ×10⁻⁶ cm/s

These reach a lower IC50 [1]. Values come first.

IC50 [1]	IC50 [2]	IC50 [3]	IC50 [4]	IC50 [5]	solubility kinetic [6]	Papp [7]	SMILES
2330 nM	1350 nM	9310 nM	39.9 nM	102 nM	23 µg/mL (≈ 51.2 µM)	0.47 ×10⁻⁶ cm/s	COc1ccc(Cl)cc1Cc1cn(C)c2ccc(C(=O)Nc3ccc(C(=O)O)cc3)cc12
2730 nM	2780 nM	9570 nM	130 nM	123 nM	73 µg/mL (≈ 135 µM)	1.79 ×10⁻⁶ cm/s	COc1ccc(Cl)cc1S(=O)(=O)N1COc2c(F)cc(C(=O)Nc3ccc(C(=O)O)c(Cl)c3)cc21
8830 nM	> 100000 nM	> 100000 nM	33.7 nM	21.7 nM	71 µg/mL (≈ 153 µM)	0.01 ×10⁻⁶ cm/s	Cc1cc(C)cc(S(=O)(=O)c2nn(CC(=O)O)c3ccc(C(=O)Nc4ccccc4)cc23)c1
9100 nM	28100 nM	46500 nM	131 nM	134 nM	345 µg/mL (≈ 647 µM)	2.15 ×10⁻⁶ cm/s	COc1ccc(Cl)cc1S(=O)(=O)N1CCCCc2ccc(C(=O)Nc3ccc(C(=O)O)c(F)c3)cc21
512 nM	15400 nM	> 100000 nM	474 nM	1390 nM	19 µg/mL (≈ 51.3 µM)	1.73 ×10⁻⁶ cm/s	O=C(Cn1cc(-c2ccccc2)c2ccccc21)Nc1ccc(C(=O)O)cc1
6170 nM	72600 nM	81600 nM	192 nM	932 nM	31 µg/mL (≈ 72.9 µM)	1.23 ×10⁻⁶ cm/s	Cc1cc(C(=O)Nc2ccc(-c3nnn[nH]3)cc2)nn1Cc1ccc(OC(F)F)cc1
932 nM	> 100000 nM	> 100000 nM	175 nM	106 nM	4 µg/mL (≈ 7.53 µM)	3.3 ×10⁻⁶ cm/s	COc1ccc(Cl)cc1S(=O)(=O)N1CCOc2ccc(C(=O)Nc3ccc(CCC(=O)O)cc3)cc21
